Test results reported in patent publication US3983105A, “Penicillins” (Bayer Aktiengesellschaft, priority 1971, dated 1976).

Legend:
Format in all cases: cell-based
Proteus morganii = test: MIC, test tube serial dilution, Proteus morganii
Escherichia coli = test: MIC, test tube serial dilution, Escherichia coli
Klebsiella-Aerobacter = test: MIC, test tube serial dilution, Klebsiella-Aerobacter
Proteus vulgaris = test: MIC, test tube serial dilution, Proteus vulgaris
Streptococcus faecalis = test: MIC, test tube serial dilution, Streptococcus faecalis
Pseudomonas aeruginosa = test: MIC, test tube serial dilution, Pseudomonas aeruginosa
Staphylococcus aureus = test: MIC, test tube serial dilution, Staphylococcus aureus
[1] = strain 1756 (BRL 1 756), 24 hours, 37°C

SMILES | MIC (Escherichia coli; strain 183/58, 24 hours, 37°C) [U/ml] | MIC (Escherichia coli; strain A 261, 24 hours, 37°C) [U/ml] | MIC (Klebsiella-Aerobacter; strain 63, 24 hours, 37°C) [U/ml] | MIC (Proteus vulgaris; strain 1017, 24 hours, 37°C) [U/ml] | MIC (Pseudomonas aeruginosa; strain Bonn, 24 hours, 37°C) [U/ml] | MIC (Staphylococcus aureus; [1]) [U/ml] | MIC (Proteus morganii; unit assumed) [µg/mL] | MIC (Proteus morganii; Table 3, strain 932) [U/ml] | MIC (Escherichia coli; Table 3, strain 14) [U/ml] | MIC (Escherichia coli; Table 3, strain 183/58) [U/ml] | MIC (Escherichia coli; Table 3, strain A 261) [U/ml] | MIC (Escherichia coli; Table 3, strain C 165) [U/ml] | MIC (Klebsiella-Aerobacter; Table 3, strain 63) [U/ml] | MIC (Klebsiella-Aerobacter; Table 3, strain K 10) [U/ml] | MIC (Proteus vulgaris; Table 3, strain 1017) [U/ml] | MIC (Streptococcus faecalis; Table 3, ATCC 9790) [U/ml] | MIC (Pseudomonas aeruginosa; Table 3, strain F 41) [U/ml] | MIC (Pseudomonas aeruginosa; Table 3, strain Walter) [U/ml] | MIC (Staphylococcus aureus; Table 3, strain 133) [U/ml] | MIC (Staphylococcus aureus; Table 3, strain 1756E) | also measured
CN(C)C(=O)N1CCN(C(=O)N[C@@H](C(=O)N[C@@H]2C(=O)N3[C@@H]2SC(C)(C)[C@@H]3C(=O)O)c2ccccc2)C1=O [Example 6, Sodium D(-)-α-[(3-dimethylaminocarbonyl-imidazolidin-2-on-1-yl)-carbonylamino]-benzylpenicillin] | 4 | > 256 | 32 | 16 | 32 | 64 |  |  |  |  |  |  |  |  |  |  |  |  |  |  | MIC (Proteus morganii; strain 932, 24 hours, 37°C): 64 U/ml; MIC (Klebsiella-Aerobacter; strain K 10, 24 hours, 37°C): 16 U/ml; MIC (Streptococcus faecalis; ATCC 9790, 24 hours, 37°C): 32 U/ml; MIC (Pseudomonas aeruginosa; strain Walter, 24 hours, 37°C): 32 U/ml
CC1(C)S[C@@H]2[C@H](NC(=O)[C@H](NC(=O)N3CCN(C(=O)N4CCCCC4)C3=O)c3ccccc3)C(=O)N2[C@H]1C(=O)O [Example 9, Sodium D(-)-α-[(3-piperdyl-N-carbonyl-imidazolidin-2-on-1-yl)-carbonylamino]-benzylpenicillin] | 4 | > 256 |  |  | 64 | > 256 | 32 |  |  |  |  |  |  |  |  |  |  |  |  |  | MIC (Klebsiella-Aerobacter; in µg/mL (unit assumed)): 8; MIC (Proteus vulgaris; unit assumed): 32 µg/mL; MIC (Streptococcus faecalis; unit assumed): 128 µg/mL; MIC (Pseudomonas aeruginosa; in µg/mL (unit assumed)): 32
CC1(C)S[C@@H]2[C@H](NC(=O)[C@H](NC(=O)N3CCN(C=O)C3=O)c3ccccc3)C(=O)N2[C@H]1C(=O)O [Example 20, Sodium D(-)-α-[(3-formyl-imidazolidin-2-on-1-yl)-carbonylamino]-benzylpenicillin] | 64 | > 256 | 64 | 16 |  | 128 | 8 |  |  |  |  |  |  |  |  |  |  |  |  |  | MIC (Klebsiella-Aerobacter; in µg/mL (unit assumed)): 32; MIC (Streptococcus faecalis; unit assumed): 32 µg/mL; MIC (Pseudomonas aeruginosa; in µg/mL (unit assumed)): 8; MIC (Pseudomonas aeruginosa; strain Walter, 24 hours, 37°C): 16 U/ml
CCOC(=O)NS(=O)(=O)N1CCN(C(=O)N[C@@H](C(=O)N[C@@H]2C(=O)N3[C@@H]2SC(C)(C)[C@@H]3C(=O)O)c2ccccc2)C1=O [Example 22, Sodium D(-)-α-{[3-(ethoxy-carbonyl-amino-sulphonyl)imidazolidin-2-on-1-yl]-carbonylamino}-benzylpenicillin] | 8 | > 256 | 64 | 16 | 16 | 128 | 128 |  |  |  |  |  |  |  |  |  |  |  |  |  | MIC (Klebsiella-Aerobacter; in µg/mL (unit assumed)): 32; MIC (Streptococcus faecalis; unit assumed): 32 µg/mL; MIC (Pseudomonas aeruginosa; in µg/mL (unit assumed)): 32
CCS(=O)(=O)N1CCN(C(=O)N[C@@H](C(=O)N[C@@H]2C(=O)N3[C@@H]2SC(C)(C)[C@@H]3C(=O)O)c2ccccc2)C1=O [Example 24, Sodium D(-)-α-[(3-ethanesulphonyl-imidazolidin-2-on-1-yl)-carbonylamino]-benzylpenicillin] | < 1 | 512 |  |  |  | 32 | 2 |  |  |  |  |  |  |  |  |  |  |  |  |  | MIC (Klebsiella-Aerobacter; in µg/mL (unit assumed)): 8; MIC (Proteus vulgaris; unit assumed): 2 µg/mL; MIC (Streptococcus faecalis; ATCC 9790, 24 hours, 37°C): 16 U/ml; MIC (Pseudomonas aeruginosa; in µg/mL (unit assumed)): 32
CN(C(=O)N[C@@H](C(=O)N[C@@H]1C(=O)N2[C@@H]1SC(C)(C)[C@@H]2C(=O)O)c1ccccc1)C(=O)N1CCCS1(=O)=O [Example 29, Sodium D(-)-α-{3-[N-(1,1-dioxo-isothiazolidin-2-yl)-carbonyl]-3-methyl}-ureido-benzylpenicillin] | 32 | > 256 | 64 | 64 | 16 | 256 | 128 |  |  |  |  |  |  |  |  |  |  |  |  |  | MIC (Escherichia coli; strain C 165, 24 hours, 37°C): 16 U/ml; MIC (Klebsiella-Aerobacter; strain K 10, 24 hours, 37°C): 64 U/ml; MIC (Streptococcus faecalis; ATCC 9790, 24 hours, 37°C): 16 U/ml; MIC (Pseudomonas aeruginosa; strain Walter, 24 hours, 37°C): 16 U/ml
CC1(C)S[C@@H]2[C@H](NC(=O)[C@H](NC(=O)NC(=O)NS(C)(=O)=O)c3ccccc3)C(=O)N2[C@H]1C(=O)O [Example 31, Sodium D(-)-α-(5 -mesyl-biureido)-benzylpenicillin] | 128 | > 256 | > 256 | > 256 | 256 | 64 |  |  |  |  |  |  |  |  |  |  |  |  |  |  | MIC (Proteus morganii; strain 932, 24 hours, 37°C): 64 U/ml; MIC (Klebsiella-Aerobacter; strain K 10, 24 hours, 37°C): > 256 U/ml; MIC (Streptococcus faecalis; unit assumed): 32 µg/mL; MIC (Pseudomonas aeruginosa; strain Walter, 24 hours, 37°C): 256 U/ml
CC1(C)S[C@@H]2[C@H](NC(=O)C(NC(=O)N3CCN(S(C)(=O)=O)C3=O)c3ccc(Cl)cc3)C(=O)N2[C@H]1C(=O)O (stereo partly drawn) [Penicillin No. 2 (Table 3), Sodium D,L-α-[(3-methylsulphonyl-imidazolidin-2-on-1-yl)-carbonylamino]-4-chlorobenzylpenicillin] |  |  |  |  |  |  |  | 8 | < 1 | 4 | 256 | 4 | 128 | 32 | 8 | 64 | 128 | 64 | < 1 | 64 U/ml | 
CC1(C)S[C@@H]2[C@H](NC(=O)C(NC(=O)N3CCN(S(C)(=O)=O)C3=O)c3cccs3)C(=O)N2[C@H]1C(=O)O (stereo partly drawn) [Penicillin No. 3 (Table 3), Sodium D,L-α-[(3-methylsulphonyl-imidazolidin-2-on-1-yl)-carbonylamino]-α-thienyl-(2)-mthylpenicillin] |  |  |  |  |  |  |  | 16 | < 1 | 4 | 256 | 4 | 256 | 16 | 4 |  | 64 | 64 | < 1 | 128 U/ml | MIC (Streptococcus faecalis; unit assumed): 32 µg/mL
CC1(C)S[C@@H]2[C@H](NC(=O)C(NC(=O)N3CCN(S(C)(=O)=O)C3=O)c3c(Cl)cccc3Cl)C(=O)N2[C@H]1C(=O)O (stereo partly drawn) [Penicillin No. 5 (Table 3), Sodium D,L-α-[(3-methylsulphonyl-imidazolidin-2-on-1-yl)-carbonylamino]-2,6-dichloro-benzylpenicillin] |  |  |  |  |  |  |  | 32 | 256 | 256 | ≥ 256 | ≥ 256 | ≥ 256 | ≥ 256 | 256 | 256 | ≥ 256 | ≥ 256 | 4 | ≥ 256 U/ml | 
CC(=O)N1CCN(C(=O)N[C@H](C(=O)N[C@@H]2C(=O)N3[C@@H]2SC(C)(C)[C@@H]3C(=O)O)c2ccccc2)C1=O [Penicillin No. 6 (Table 3), Sodium L(+)-α-[(3-acetyl-imidazolidin-2-on-1-yl)-carbonylamino]-benzylpenicillin] |  |  |  |  |  |  |  | 64 | 8 | 16 | > 512 | 32 | 256 | 128 | 32 | 128 | 256 | 128 | 2 | 128 U/ml | 
CC(=O)N1CCN(C(=O)NC(C(=O)N[C@@H]2C(=O)N3[C@@H]2SC(C)(C)[C@@H]3C(=O)O)c2ccc(Cl)cc2)C1=O (stereo partly drawn) [Penicillin No. 7 (Table 3), Sodium D,L-α-[(3-acetylimidazolidin-2-on-1-yl)-carbonyl-amino]-4-chlorobenzylpenicillin] |  |  |  |  |  |  |  | 16 | 4 | 8 | 512 | 16 | 128 | 32 | 32 | 64 | 128 | 64 | < 1 | 64 U/ml | 
CC(=O)N1CCN(C(=O)NC(C(=O)N[C@@H]2C(=O)N3[C@@H]2SC(C)(C)[C@@H]3C(=O)O)c2ccc(C)cc2)C1=O (stereo partly drawn) [Penicillin No. 8 (Table 3), Sodium D,L-α-[(3-acetyl-imidazolidin-2-on1-yl)-carbonylamino]-4-methyl-benzylpenicillin] |  |  |  |  |  |  |  | 32 | 2 | 8 | 512 | 8 | 128 | 32 |  | 64 | 128 | 64 |  | ~ 64 U/ml | MIC (Proteus vulgaris; unit assumed): 16 µg/mL
CC(=O)N1CCN(C(=O)NC(C(=O)N[C@@H]2C(=O)N3[C@@H]2SC(C)(C)[C@@H]3C(=O)O)c2cccs2)C1=O (some centres unmarked) [Penicillin No. 9 (Table 3)] |  |  |  |  |  |  |  | 8 | 2 | 8 | 512 | 8 | 128 | 32 | 8 | 64 | 64 | 64 | 2 | 64 U/ml | 
